Here are results for one molecule from patent US20240122879A1, “COMPOSITIONS AND METHODS FOR TREATING OCULAR CHEMICAL BURNS” (OHIO STATE INNOVATION FOUNDATION, priority 2022, published 2024).

In test [1] the test system is GsdmD. The test is described as follows: Western blot of GsdmD cleavage in isolated primary mouse neutrophils. The format is cell-based. The conditions noted are these: primary neutrophils from mouse bone marrow; FIG. 12. An excerpt: (§1) To further confirm neutrophils undergo pyrotposis, primary neutrophils were isolated and purified from mouse bone marrow. Isolated neutrophils underwent pyroptosis quickly after isolation followed by activation of apoptosis, as evidenced by cleaved caspase-3 (FIG. 11).
(§2) Bone marrow samples were obtained as previously described. Briefly, lower limbs were collected from euthanized mice. All attached soft tissue was removed to fully expose the femurs and tibias. An 18G needle was inserted into hollow of the bone and pulse flush buffer (2% FBS in PBS) used to flush marrow into a 15 ml sterile centrifuge tube. The solution was then filtered with a 70-100 μm filter. The solution was centrifuged at […], and the bone marrow cells were resuspended in red blood cell lysis buffer for 5 minutes.
(§3) Separation of neutrophils using density gradient centrifugation was performed as previously described (Swamydas, et al. J Vis Exp. 2013 (77):e50586). The bone marrow cells were resuspended in 1 ml of ice-cold sterile PBS. Using a 15 mL conical tube, 3 ml of Histopaque 1119 was first added followed by an overlay of 3 mL of Histopaque 1077. The bone marrow cell suspension was then overlaid on the Histopaque 1077. The samples were centrifuged for 30 min at 2,000 rpm at 25° C. Neutrophils were then at the interface of the Histopaque 1119 and Histopaque 1077 layers. […]
(In general: Immunoblotting shows a protein as a band on a membrane.)

A further test has as its system Caspase-3. The test is described as follows: Western blot of Caspase-3 cleavage in isolated primary mouse neutrophils. The format is cell-based. To be noted: primary neutrophils from mouse bone marrow; FIG. 12.
Source text: as §1, §2, §3

Another test concerns mCECs. The test is described as follows: Scratch wound assay of mCECs cultured with dissected corneas from treated mice. It counts as cell-based, mouse. The conditions noted are these: FIG. 3A, 3B. As to the method: The potential function of neutrophil pyroptosis in corneal wound healing was next tested. Mouse corneas were first dissected with or without injury from WT, GsdmD^−/−, Gr-1 treated, and disulfiram treated mice, and cultured the dissected corneas with mCECs. A scratch wound was then created in the mCEC.
For disulfiram treatment of mice, disulfiram was dissolved in sesame oil (12.5 mg/ml). Mice were injected 16 hours before injury through intraperitoneal injection (50 mg/kg); injection continued daily for the duration of the experiment. For Gr-1 antibody treatment, mice were injected 16 hours and immediately before injury through intraperitoneal injection (100 μg/mouse).
To induce cellular migration, an in vitro scratch test was performed using mCECs. Cells were treated with dissected corneas or cytokines when they reached confluence, were subsequently scratched with a micropipette tip, and incubated for up to 12 hrs. Images were taken at 0, 3, 6, and 9 hours after the initial scratch. Images of wound closure were quantified by using ImageJ software.

In test [2] the test system is injured corneas. The test is described as follows: Alkali induced corneal injury: re-epithelialization / wound healing (fluorescein). The format is in vivo, mice. The conditions noted are these: disulfiram 50 mg/kg i.p. daily from 16 h before injury, antibodies before wounding, FIG. 7C-7F. As to the method:
(§4) All animal care and usage followed NIH guidelines and were in accordance with the ARVO Statement for the Use of Animals in Ophthalmic and Vision Research. Rodent studies received IACUC approval by The Ohio State University. For all corneal wound healing models, injury was induced under anesthesia, all animals received topical antibiotics, and topical and systemic analgesics were provided for at least 72 h. To induce corneal injury, a 1.5 mm filter paper soaked in 1N NaOH was applied to the axial cornea for 30 seconds. The filter paper was then removed and the cornea rinsed with PBS for two minutes. After the cornea was thoroughly rinsed, fluorescein stain was applied to the cornea to verify corneal ulceration. For disulfiram treatment of mice, disulfiram was dissolved in sesame oil (12.5 mg/ml). Mice were injected 16 hours before injury through intraperitoneal injection (50 mg/kg); injection continued daily for the duration of the experiment. For Gr-1 antibody treatment, mice were injected 16 hours and immediately before injury through intraperitoneal injection (100 μg/mouse).

Test [3] relates to injured corneas. The test is described as follows: Alkali induced corneal injury: corneal neovascularization, CD31 staining of corneal flat mount. To be noted: disulfiram 50 mg/kg i.p. daily, FIG. 7G, 7H. The format is in vivo, mice. The protocol: as §4, with “μg/mouse). Dissected eye from mice were fixed in 4% PFA for 24 to 48 hours at 4° C. […]” for “μg/mouse).”
For test [4], the system named is GsdmD. Briefly: Western blot of corneal samples after alkali injury: GsdmD cleavage / pyroptosis. The format is in vivo, mice. The conditions noted are these: FIG. 2C. An excerpt: (§5) While neutrophil pyroptosis plays a detrimental role during corneal wound healing, the initial neutrophil infiltration is critical for removing dead corneal cells and debris, which is part of the healing process. Thus, complete depletion of neutrophil may not be the ideal option to promote normal corneal healing. Disulfiram is an FDA approved drug, which has been recently been identified as a pyroptosis inhibitor (Hu, et al. Nat Immunol. 2020 21(7):736-745). Thus, tested was whether application of disulfiram could be an effective means to promote corneal wound healing. […] To confirm treatment of disulfiram could inhibit post-injury pyroptosis, Western blot analysis was performed on corneal samples before and after injury.
(§6) All animal care and usage followed NIH guidelines and were in accordance with the ARVO Statement for the Use of Animals in Ophthalmic and Vision Research. Rodent studies received IACUC approval by The Ohio State University. For all corneal wound healing models, injury was induced under anesthesia, all animals received topical antibiotics, and topical and systemic analgesics were provided for at least 72 h. To induce corneal injury, a 1.5 mm filter paper soaked in 1N NaOH was applied to the axial cornea for 30 seconds. The filter paper was then removed and the cornea rinsed with PBS for two minutes. […]

For a further test, the system named is Caspase-1. The test is described as follows: Western blot: Caspase-1 cleavage after disulfiram treatment. The format is in vivo, mice. The conditions noted are these: FIG. 17.
Source text: as §5, §6

Test [5] relates to IL-1β, caspase 1 and GsdmD. The conditions noted are these: discussion statement following citation of Hu et al.; cited from earlier work.

Entries after “also recorded” stand apart in the source; their conditions may differ.

For the molecule `CCN(CC)C(=S)SSC(=S)N(CC)CC` [Disulfiram, Tetraethylthiuram disulfide], the “GsdmD cleavage in isolated neutrophils” value with GsdmD [1] was “inhibits cleavage of GsdmD; also recorded: significantly inhibit”. Further, the “Caspase-3 cleavage in isolated neutrophils” value in the test on Caspase-3 is given as “not cleavage of Caspase-3”. Besides, in the test on mCECs, the “inhibitory effects of injured corneas on mCECs migration (scratch wound closure)” value was “greatly reduced”. Moreover, the “corneal wound healing / re-epithelialization” value in the test with injured corneas [2] was “dramatically accelerated wound healing; also recorded: improved healing outcomes; also recorded: promote the re-epithelialization”. In the test with injured corneas [3], the “corneal neovascularization (CNV), CD31 staining” value is given as “significantly reduced; also recorded: significantly reduce neovascularization”. Further, in the test with GsdmD [4] (FIG. 17 (disulfiram), 24 hours after injury (Gr-1 antibody)), the “cleavage of GsdmD (GsdmD-N expression)” value is reported as “suppress cleavage”. Moreover, the “activation of pyroptosis after corneal injury” value in the test with GsdmD [4] (corneal samples after alkali injury, FIG. 17) is on record as “effectively inhibited pyroptosis”. Also, the “cleavage of Caspase-1” value with Caspase-1 is listed as “suppress cleavage”. In test [5], the “cleavage of caspase 1 and GsdmD” value is “inhibit the cleavage of caspase 1 and GsdmD”; the “release of mature IL-1β” value was “inhibit the release of mature IL-1β”.
